Experimental data: US20230009608A1, “GRK2 INHIBITORS AND USES THEREOF” (Cygnal Therapeutics, Inc., priority 2020, published 2023)

Key:
GRK2 = target: T1, GRK2 (Homo sapiens, UniProt P25098); assay: ADPGlo GRK2 Inhibition Assay (Example 8); format: biochemical; settings: ADPGlo GRK2 enzyme assay; read-out: A: Enzymatic GRK2: IC50 (nM) (Example 8)
T1 construct: purchased SignalChem A14-10G
T1 sequence (P25098 1-689): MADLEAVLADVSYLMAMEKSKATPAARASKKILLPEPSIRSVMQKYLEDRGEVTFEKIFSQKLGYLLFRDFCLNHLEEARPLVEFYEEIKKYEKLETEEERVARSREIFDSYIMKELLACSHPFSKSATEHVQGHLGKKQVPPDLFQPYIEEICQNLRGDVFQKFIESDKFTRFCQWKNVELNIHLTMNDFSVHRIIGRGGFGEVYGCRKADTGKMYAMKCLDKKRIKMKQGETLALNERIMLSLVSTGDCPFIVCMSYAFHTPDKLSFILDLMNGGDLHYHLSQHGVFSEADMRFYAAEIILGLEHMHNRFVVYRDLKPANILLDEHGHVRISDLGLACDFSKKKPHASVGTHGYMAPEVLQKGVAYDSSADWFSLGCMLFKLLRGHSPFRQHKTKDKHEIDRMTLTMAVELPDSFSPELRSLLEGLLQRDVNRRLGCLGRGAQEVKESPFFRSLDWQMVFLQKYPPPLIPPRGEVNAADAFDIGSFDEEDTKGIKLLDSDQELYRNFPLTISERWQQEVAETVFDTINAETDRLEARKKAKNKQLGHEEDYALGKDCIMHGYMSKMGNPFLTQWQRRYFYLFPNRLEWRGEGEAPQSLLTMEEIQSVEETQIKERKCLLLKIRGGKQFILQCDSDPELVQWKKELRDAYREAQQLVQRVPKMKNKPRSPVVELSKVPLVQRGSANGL
Method in brief: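 GRK2 (15 nM 2× enzyme solution) was preincubated 15 min with compound, then reacted 180 min at room temperature with 2× mix of 20 μM ATP plus GRKtide in HEPES pH 7.5, MgCl2, Tween-20, DTT. ADP was detected by ADP-Glo luminescence. Percent inhibition was normalised to enzyme and no-enzyme controls, with dose-response curves from threefold dilutions starting at 100 μM.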

[1] = tested on: PAXF1657 control empty vector cell line; assay: 7-day proliferation assay, PAXF1657 control empty vector cell line (Example 9); format: cell-based; settings: 168 h; Cell Line: PAXF1657 empty vector (EV) cell line; 7-day; read-out: C: 7-day proliferation assay: IC50 GeoMean
Method in brief: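 Cells plated at 500 per well and attached overnight. Next, 10-point inhibitor series added (30 μM-0.0002 μM, 0.3% DMSO) and a day-0 viability plate read. Then, after 3 days, medium with fresh compound. Finally, viability after 4 more days via CellTiter-Glo.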

Row | Compound | IC50 (GRK2) [nM] | IC50 [1] [nM]
1 | Cn1c(CNc2cccc(C(=O)NCc3ccccc3S(=O)(=O)NC(C)(C)C)c2)nnc1-c1ccncn1 | 54 | 4290
2 | Cn1c(CNc2cccc(C(=O)NCc3ccncc3Br)c2)nnc1-c1ccncn1 | 13.8 | 633
3 | Cn1c(CNc2cccc(C(=O)NCc3ccccc3CO)c2)nnc1-c1ccncn1 | 18.4 | 1560
4 | Cc1ccnc(CNC(=O)c2cccc(NCc3nnc(-c4ccncn4)n3C)c2)c1F | 50.2 | > 30000
5 | COc1ccncc1CNC(=O)c1cccc(NCc2nnc(-c3ccncn3)n2C)c1 | 28.1 | 5090
6 | CCc1cccnc1CNC(=O)c1cccc(NCc2nnc(-c3ccncn3)n2C)c1 | 22.6 | 4510
7 | CN(C)c1ncccc1CNC(=O)c1cccc(NCc2nnc(-c3ccncn3)n2C)c1 | 46.1 | 1160
8 | COc1nccc(C)c1CNC(=O)c1cccc(NCc2nnc(-c3ccncn3)n2C)c1 | 37.3 | 930
9 | COc1ccc(CNC(=O)c2cccc(NCc3nnc(-c4ccncn4)n3C)c2)c(C)n1 | 28.5 | > 30000
10 | COc1ccccc1C(C#N)NC(=O)c1cccc(NCc2nnc(-c3ccncn3)n2C)c1 (centres unmarked) | 6.03 | 468
11 | Cn1c(CNc2cccc(C(=O)NC3CS(=O)(=O)c4ccccc43)c2)nnc1-c1ccncn1 (centres unmarked) | 20.2 | 1440
12 | CN1Cc2ccccc2C(NC(=O)c2cccc(NCc3nnc(-c4ccncn4)n3C)c2)C1 (centres unmarked) | 45.9 | 7670
13 | Cn1c(CNc2cccc(C(=O)NCc3c(F)ccc4[nH]cnc34)c2)nnc1-c1ccncn1 | 19.2 | 22600
14 | Cn1c(CNc2cccc(C(=O)NCc3ccccc3-n3ccnc3)c2)nnc1-c1ccncn1 | 30 | 1150
15 | CN(C)S(=O)(=O)c1ccccc1CNC(=O)c1cccc(NCc2nnc(-c3ccncn3)n2C)c1 | 47.2 | 21500
16 | Cn1c(CNc2cccc(C(=O)NCc3ccccc3Cn3cncn3)c2)nnc1-c1ccncn1 | 55.7 | 7410
17 | CCC(NC(=O)c1cccc(NCc2nnc(-c3ccncn3)n2C)c1)c1ccccc1OCC(=O)NC (centres unmarked) | 67.2 | > 27800
18 | Cn1c(CNc2cccc(C(=O)NCc3ccncc3-c3cc[nH]n3)c2)nnc1-c1ccncn1 | 53.5 | > 23300
19 | Cn1c(CNc2cccc(C(=O)NCc3cccnc3OC(F)F)c2)nnc1-c1ccncn1 | 16.7 | 1440
20 | Cc1ncncc1[C@@H](C)NC(=O)c1cccc(NCc2nnc(-c3ccncn3)n2C)c1 | 15.5 | > 30000
21 | Cn1c(CNc2cccc(C(=O)NC3CC(=O)c4ccccc43)c2)nnc1-c1ccncn1 (centres unmarked) | 19 | 867
22 | Cn1c(CNc2cccc(C(=O)NC3CCOc4ncccc43)c2)nnc1-c1ccncn1 (centres unmarked) | 56.7 | > 30000

Row | Compound | IC50 (GRK2) [nM] | IC50 [1] [nM]
23 | Cc1cc(C)c(CNC(=O)c2cccc(NCc3nnc(-c4ccncn4)n3C)c2)c(=O)[nH]1 | 14.9 | > 30000
24 | Cc1cc(CO)cc(C)c1CNC(=O)c1cccc(NCc2nnc(-c3ccncn3)n2C)c1 | 10.8 | 738
25 | Cc1ccc(C)c(CNC(=O)c2cccc(NCc3nnc(-c4ccncn4)n3C)c2)n1 | 11.2 | > 30000
26 | Cn1c(CNc2cccc(C(=O)NCc3cccc4c3CCNC4)c2)nnc1-c1ccncn1 | 18.4 | > 30000
27 | Cn1c(CNc2cccc(C(=O)NCc3cccc4c3CCOC4)c2)nnc1-c1ccncn1 | 8.5 | > 30000
28 | Cn1c(CNc2cccc(C(=O)NCc3ccccc3CN3CCOCC3)c2)nnc1-c1ccncn1 | 71.5 | 6710
29 | CN(C)CCNc1ccccc1CNC(=O)c1cccc(NCc2nnc(-c3ccncn3)n2C)c1 | 53.3 | > 30000
30 | Cn1c(CNc2cccc(C(=O)NCc3ccccc3NS(C)(=O)=O)c2)nnc1-c1ccncn1 | 32.1 | > 30000
31 | CN(CCO)S(=O)(=O)c1ccccc1CNC(=O)c1cccc(NCc2nnc(-c3ccncn3)n2C)c1 | 42 | > 11800
32 | CNc1ncccc1CNC(=O)c1cccc(NCc2nnc(-c3ccncn3)n2C)c1 | 18.3 | 1630
33 | Cn1c(CNc2cccc(C(=O)NCc3ncccc3Cl)c2)nnc1-c1ccncn1 | 48.2 | > 16400
34 | Cn1c(CNc2cccc(C(=O)NCc3cnn(CCF)c3)c2)nnc1-c1ccncn1 | 82.9 | > 5600
35 | Cn1c(CNc2cccc(C(=O)NCc3ccc(C(F)F)cc3)c2)nnc1-c1ccncn1 | 64.2 | > 13100
36 | COc1cccc(CNC(=O)c2cccc(NCc3nnc(-c4ccncn4)n3C)c2)c1C | 12.6 | > 12600
37 | Cn1c(CNc2cccc(C(=O)NCc3cnn4c3CCCC4)c2)nnc1-c1ccncn1 | 71.6 | > 24800
38 | Cn1c(CNc2cccc(C(=O)NCc3ccc(F)c(F)c3)c2)nnc1-c1ccncn1 | 63.7 | 9330
39 | CCOc1cccc(CNC(=O)c2cccc(NCc3nnc(-c4ccncn4)n3C)c2)c1 | 73.6 | > 30000
40 | CCOc1ccc(CNC(=O)c2cccc(NCc3nnc(-c4ccncn4)n3C)c2)cc1 | 35.3 | 1200
41 | Cn1c(CNc2cccc(C(=O)NCc3ccc(C(F)F)nc3)c2)nnc1-c1ccncn1 | 44.6 | > 4160
42 | CC1Oc2ccccc2C1NC(=O)c1cccc(NCc2nnc(-c3ccncn3)n2C)c1 (centres unmarked) | 7.43 | 1790
43 | COc1cccc(C)c1CNC(=O)c1cccc(NCc2nnc(-c3ccncn3)n2C)c1 | 8.2 | 246
44 | COc1ccc(CNC(=O)c2cccc(NCc3nnc(-c4ccncn4)n3C)c2)cc1F | 30.1 | 6650

Row | Compound | IC50 (GRK2) [nM] | IC50 [1] [nM]
45 | Cn1c(CNc2cccc(C(=O)NC3COc4ccccc4C3)c2)nnc1-c1ccncn1 (centres unmarked) | 68.4 | > 12600
46 | Cc1ccc2c(c1)C(NC(=O)c1cccc(NCc3nnc(-c4ccncn4)n3C)c1)CO2 (centres unmarked) | 18.8 | 332
47 | Cn1c(CNc2cccc(C(=O)NCC3COc4ccccc43)c2)nnc1-c1ccncn1 (centres unmarked) | 54.7 | > 5210
48 | Cn1c(CNc2cccc(C(=O)NC(CCO)c3ccccc3)c2)nnc1-c1ccncn1 (centres unmarked) | 26.4 | 1090
49 | Cc1ccc(C(C)NC(=O)c2cccc(NCc3nnc(-c4ccncn4)n3C)c2)nc1 (centres unmarked) | 74 | > 5020
50 | Cc1cncc(C(C)NC(=O)c2cccc(NCc3nnc(-c4ccncn4)n3C)c2)c1 (centres unmarked) | 16.2 | 784
51 | CC(C)C(NC(=O)c1cccc(NCc2nnc(-c3ccncn3)n2C)c1)c1ccccn1 (centres unmarked) | 52.8 | 1900
52 | Cn1ccnc1C(NC(=O)c1cccc(NCc2nnc(-c3ccncn3)n2C)c1)C1CC1 (centres unmarked) | 52.9 | 3750
53 | COc1ccc(C(C)NC(=O)c2cccc(NCc3nnc(-c4ccncn4)n3C)c2)cn1 (centres unmarked) | 22.6 | 1710
54 | Cn1c(CNc2cccc(C(=O)NC(c3ccccn3)C3CC3)c2)nnc1-c1ccncn1 (centres unmarked) | 68.9 | 2630
55 | Cn1c(CNc2cccc(C(=O)NCc3ccccc3N3CCNCC3)c2)nnc1-c1ccncn1 | 65.8 | 7890
56 | Cn1c(CNc2cccc(C(=O)NC3CCc4c(O)cccc43)c2)nnc1-c1ccncn1 (centres unmarked) | 47.2 | 8840
57 | CN(C)S(=O)(=O)c1cccc(F)c1CNC(=O)c1cccc(NCc2nnc(-c3ccncn3)n2C)c1 | 5.78 | 263
58 | Cn1c(CNc2cccc(C(=O)N[C@@H](C#N)c3cc(F)ccc3F)c2)nnc1-c1ccncn1 | 15.7 | 244
59 | Cn1c(CNc2cccc(C(=O)N[C@H](C#N)c3cc(F)ccc3F)c2)nnc1-c1ccncn1 | 17.7 | 808
60 | Cc1ccccc1[C@H](C#N)NC(=O)c1cccc(NCc2nnc(-c3ccncn3)n2C)c1 | 4.63 | 30.4
61 | Cc1ccccc1[C@@H](C#N)NC(=O)c1cccc(NCc2nnc(-c3ccncn3)n2C)c1 | 4.97 | 35.5
62 | Cn1c(CNc2cccc(C(=O)N[C@H](C#N)c3cccnc3)c2)nnc1-c1ccncn1 | 20.3 | 3430
63 | CCCCCOc1ccc2c(c1)[C@@H](NC(=O)c1cccc(NCc3nnc(-c4ccncn4)n3C)c1)CCO2 | 12.6 | 2130
64 | CCCCCOc1ccc2c(c1)[C@@H](NC(=O)c1cccc(NCc3nnc(-c4ccncn4)n3C)c1)CO2 | 8.3 | 236
